Measured values as given in PubChem BioAssay (NCI).
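Five concentrations, 48 hours, 96-well plates. Abbreviation: GI50, concentration required for 50% inhibition of growth. TGI: concentration producing complete growth inhibition.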 Where a SMILES comes first, the peptide text is derived from it. [ ]: non-standard residue; d: D form. The star is where a group is joined. Decanoyl = CCCCCCCCCC(=O)*; Leu(ol) = CC(C)C[C@H](N)CO; Iva = CC[C@](C)(N)C(=O)O; Aib = CC(C)(N)C(=O)O

How the values were obtained:
Assay in all cases: NCI tumour cell line growth inhibition, 48 h
SF-295 CNS = tested on: SF-295 CNS
HCT-116 colon = tested on: HCT-116 colon
MCF7 breast = tested on: MCF7 breast
NCI/ADR-RES ovarian = tested on: NCI/ADR-RES ovarian
BT-549 breast = tested on: BT-549 breast
OVCAR-4 ovarian = tested on: OVCAR-4 ovarian
UACC-62 melanoma = tested on: UACC-62 melanoma
MDA-MB-435 = tested on: MDA-MB-435
SR leukemia = tested on: SR leukemia
SK-MEL-28 melanoma = tested on: SK-MEL-28 melanoma
A549 NSCLC = tested on: A549 NSCLC
LOX IMVI melanoma = tested on: LOX IMVI melanoma
SW-620 colon = tested on: SW-620 colon
SN12C renal = tested on: SN12C renal
RXF 393 renal = tested on: RXF 393 renal
SF-539 CNS = tested on: SF-539 CNS
NCI-H226 lung = tested on: NCI-H226 lung
IGROV1 ovarian = tested on: IGROV1 ovarian
HL-60(TB) leukemia = tested on: HL-60(TB) leukemia
MDA-MB-231 breast = tested on: MDA-MB-231 breast
SNB-75 CNS = tested on: SNB-75 CNS
MALME-3M melanoma = tested on: MALME-3M melanoma
HOP-92 NSCLC = tested on: HOP-92 NSCLC
UO-31 renal = tested on: UO-31 renal
SK-MEL-5 melanoma = tested on: SK-MEL-5 melanoma
PC-3 prostate = tested on: PC-3 prostate
HCC-2998 colon = tested on: HCC-2998 colon
HOP-62 NSCLC = tested on: HOP-62 NSCLC
OVCAR-8 ovarian = tested on: OVCAR-8 ovarian
MOLT-4 leukemia = tested on: MOLT-4 leukemia
SK-OV-3 ovarian = tested on: SK-OV-3 ovarian
SK-MEL-2 melanoma = tested on: SK-MEL-2 melanoma
HS 578T breast = tested on: HS 578T breast
SF-268 CNS = tested on: SF-268 CNS
NCI-H522 lung = tested on: NCI-H522 lung
OVCAR-5 ovarian = tested on: OVCAR-5 ovarian
OVCAR-3 ovarian = tested on: OVCAR-3 ovarian
KM12 colon = tested on: KM12 colon
DU-145 prostate = tested on: DU-145 prostate
CCRF-CEM leukemia = tested on: CCRF-CEM leukemia
HT29 colon = tested on: HT29 colon
A498 renal = tested on: A498 renal
HCT-15 colon = tested on: HCT-15 colon
M14 melanoma = tested on: M14 melanoma
786-0 renal = tested on: 786-0 renal
TK-10 renal = tested on: TK-10 renal
ACHN renal = tested on: ACHN renal
COLO 205 colon = tested on: COLO 205 colon
T-47D breast = tested on: T-47D breast
NCI-H23 lung = tested on: NCI-H23 lung
SNB-19 CNS = tested on: SNB-19 CNS
NCI-H460 lung = tested on: NCI-H460 lung
CAKI-1 renal = tested on: CAKI-1 renal
K-562 leukemia = tested on: K-562 leukemia
RPMI-8226 leukemia = tested on: RPMI-8226 leukemia
U251 CNS = tested on: U251 CNS
UACC-257 melanoma = tested on: UACC-257 melanoma
EKVX NSCLC = tested on: EKVX NSCLC

## CCCCCCCCCC(=O)NC(C)(C)C(=O)N1CCC[C@H]1C(=O)N[C@@H](CC(C)C)C(=O)N[C@@](C)(CC)C(=O)N[C@@H](CCC(N)=O)C(=O)N[C@H](CCC(N)=O)C(=O)NC(C)(C)C(=O)NC(C)(C)C(=O)N[C@@H](CCC(N)=O)C(=O)N[C@H](CC(C)C)C(=O)N[C@H](CO)CC(C)C (Decanoyl-[Aib]PL[Iva]Q[dQ][Aib][Aib]Q[dL][Leu(ol)])
SF-295 CNS
  GI50: 1750 nM
  TGI: 3260 nM
HCT-116 colon
  GI50: 1850 nM
  TGI: 3490 nM
MCF7 breast
  GI50: 1780 nM
  TGI: 3450 nM
NCI/ADR-RES ovarian
  GI50: 1830 nM
  TGI: 3550 nM
BT-549 breast
  GI50: 1850 nM
  TGI: 3300 nM
OVCAR-4 ovarian
  GI50: 2050 nM
  TGI: 4630 nM
UACC-62 melanoma
  GI50: 1630 nM
  TGI: 2980 nM
MDA-MB-435
  GI50: 1750 nM
  TGI: 3160 nM
SR leukemia
  GI50: 2250 nM
SK-MEL-28 melanoma
  GI50: 1690 nM
  TGI: 3060 nM
A549 NSCLC
  GI50: 1860 nM
  TGI: 3850 nM
LOX IMVI melanoma
  GI50: 1730 nM
  TGI: 3290 nM
SW-620 colon
  GI50: 1860 nM
  TGI: 3460 nM
SN12C renal
  GI50: 1700 nM
  TGI: 3170 nM
RXF 393 renal
  GI50: 1930 nM
  TGI: 3450 nM
SF-539 CNS
  GI50: 1720 nM
  TGI: 3110 nM
NCI-H226 lung
  GI50: 1880 nM
  TGI: 3860 nM
IGROV1 ovarian
  GI50: 1800 nM
  TGI: 3360 nM
HL-60(TB) leukemia
  GI50: 1870 nM
  TGI: 3970 nM
MDA-MB-231 breast
  GI50: 1760 nM
  TGI: 3260 nM
SNB-75 CNS
  GI50: 1460 nM
  TGI: 2790 nM
MALME-3M melanoma
  GI50: 1510 nM
  TGI: 2890 nM
HOP-92 NSCLC
  GI50: 1640 nM
  TGI: 3140 nM
UO-31 renal
  GI50: 1600 nM
  TGI: 2950 nM
SK-MEL-5 melanoma
  GI50: 1740 nM
  TGI: 3170 nM
PC-3 prostate
  GI50: 1710 nM
  TGI: 3300 nM
HCC-2998 colon
  GI50: 1800 nM
  TGI: 3390 nM
HOP-62 NSCLC
  GI50: 1950 nM
  TGI: 3800 nM
OVCAR-8 ovarian
  GI50: 1840 nM
  TGI: 3660 nM
MOLT-4 leukemia
  GI50: 2290 nM
  TGI: 5900 nM
SK-OV-3 ovarian
  GI50: 1930 nM
  TGI: 3800 nM
SK-MEL-2 melanoma
  GI50: 1740 nM
  TGI: 3240 nM
HS 578T breast
  GI50: 1810 nM
  TGI: 3510 nM
SF-268 CNS
  GI50: 1760 nM
  TGI: 3310 nM
NCI-H522 lung
  GI50: 1730 nM
  TGI: 3330 nM
OVCAR-5 ovarian
  GI50: 1700 nM
  TGI: 3070 nM
OVCAR-3 ovarian
  GI50: 1790 nM
  TGI: 3250 nM
KM12 colon
  GI50: 1830 nM
  TGI: 3330 nM
DU-145 prostate
  GI50: 1750 nM
  TGI: 3130 nM
CCRF-CEM leukemia
  GI50: 1810 nM
  TGI: 3600 nM
HT29 colon
  GI50: 2010 nM
  TGI: 3830 nM
A498 renal
  GI50: 1980 nM
  TGI: 3550 nM
HCT-15 colon
  GI50: 1900 nM
  TGI: 3790 nM
M14 melanoma
  GI50: 1770 nM
  TGI: 3290 nM
786-0 renal
  GI50: 1840 nM
  TGI: 3500 nM
TK-10 renal
  GI50: 1780 nM
  TGI: 3260 nM
ACHN renal
  GI50: 1860 nM
  TGI: 3600 nM
COLO 205 colon
  GI50: 1860 nM
  TGI: 3600 nM
T-47D breast
  GI50: 2020 nM
  TGI: 4310 nM
NCI-H23 lung
  GI50: 1790 nM
  TGI: 3520 nM
SNB-19 CNS
  GI50: 1700 nM
  TGI: 3100 nM
NCI-H460 lung
  GI50: 1890 nM
  TGI: 3470 nM
CAKI-1 renal
  GI50: 1700 nM
  TGI: 3130 nM
K-562 leukemia
  GI50: 2440 nM
RPMI-8226 leukemia
  GI50: 1920 nM
  TGI: 3950 nM
U251 CNS
  GI50: 1720 nM
  TGI: 3220 nM
UACC-257 melanoma
  GI50: 1750 nM
  TGI: 3240 nM
EKVX NSCLC
  GI50: 1700 nM
  TGI: 3170 nM
